From ChEMBL document CHEMBL4138123, “Design, synthesis and biological evaluation of novel pyrazolochalcones as potential modulators of PI3K/Akt/mTOR pathway and inducers of apoptosis in breast cancer cells” (Eur J Med Chem, 2017)

Legend:
Type in all cases: functional
RPMI-8226 [1] = assay: Cytotoxicity against human RPMI8226 cells assessed as growth inhibition after 48 hrs by sulforhodamine B assay; settings: RPMI-8226, 48 h
MOLT-4 = assay: Cytotoxicity against human MOLT4 cells assessed as cell growth at 0.01 uM after 48 hrs by sulforhodamine B assay relative to control; settings: MOLT-4, 48 h, read-out: Activity
HCT-116 [2] = assay: Cytotoxicity against human HCT116 cells assessed as growth inhibition after 48 hrs by sulforhodamine B assay; settings: HCT-116, 48 h
HT-29 = assay: Cytotoxicity against human HT-29 cells assessed as cell growth at 0.01 uM after 48 hrs by sulforhodamine B assay relative to control; settings: HT-29, 48 h, read-out: Activity
OVCAR-3 = assay: Cytotoxicity against human OVCAR3 cells assessed as cell growth at 0.1 uM after 48 hrs by sulforhodamine B assay relative to control; settings: OVCAR-3, 48 h, read-out: Activity
NCI-H23 = assay: Cytotoxicity against human NCI-H23 cells assessed as growth inhibition after 48 hrs by sulforhodamine B assay; settings: NCI-H23, 48 h; for CC50: read-out: LC50 (the source's name)
OVCAR-5 [3] = assay: Cytotoxicity against human OVCAR5 cells assessed as growth inhibition after 48 hrs by sulforhodamine B assay; settings: OVCAR-5, 48 h
786-0 = assay: Cytotoxicity against human 786-0 cells assessed as cell growth at 0.1 uM after 48 hrs by sulforhodamine B assay relative to control; settings: 786-0, 48 h, read-out: Activity
RPMI-8226 [4] = assay: Cytotoxicity against human RPMI8226 cells assessed as cell growth at 1 uM after 48 hrs by sulforhodamine B assay relative to control; settings: RPMI-8226, 48 h, read-out: Activity
T47D [5] = assay: Cytotoxicity against human T47D cells assessed as cell growth at 0.01 uM after 48 hrs by sulforhodamine B assay relative to control; settings: read-out: Activity
COLO 205 [6] = assay: Cytotoxicity against human COLO205 cells assessed as cell growth at 0.01 uM after 48 hrs by sulforhodamine B assay relative to control; settings: COLO 205, 48 h, read-out: Activity
T47D [7] = assay: Cytotoxicity against human T47D cells assessed as cell growth at 0.1 uM after 48 hrs by sulforhodamine B assay relative to control; settings: read-out: Activity
SF-268 = assay: Cytotoxicity against human SF268 cells assessed as growth inhibition after 48 hrs by sulforhodamine B assay; settings: SF-268, 48 h; for CC50: read-out: LC50 (the source's name)
NCI-H460 = assay: Cytotoxicity against human NCI-H460 cells assessed as growth inhibition after 48 hrs by sulforhodamine B assay; settings: NCI-H460, 48 h
UACC-257 = assay: Cytotoxicity against human UACC257 cells assessed as cell growth at 0.1 uM after 48 hrs by sulforhodamine B assay relative to control; settings: UACC-257, 48 h, read-out: Activity
PC-3 = assay: Cytotoxicity against human PC3 cells assessed as cell growth at 0.1 uM after 48 hrs by sulforhodamine B assay relative to control; settings: PC-3, 48 h, read-out: Activity
ACHN = assay: Cytotoxicity against human ACHN cells assessed as cell growth at 10 uM after 48 hrs by sulforhodamine B assay relative to control; settings: read-out: Activity
HOP-62 = assay: Cytotoxicity against human HOP62 cells assessed as cell growth at 1 uM after 48 hrs by sulforhodamine B assay relative to control; settings: HOP-62, 48 h, read-out: Activity
SR = assay: Cytotoxicity against human SR cells assessed as growth inhibition after 48 hrs by sulforhodamine B assay; settings: for CC50: read-out: LC50 (the source's name)
HCC 2998 = assay: Cytotoxicity against human HCC2998 cells assessed as cell growth at 0.1 uM after 48 hrs by sulforhodamine B assay relative to control; settings: HCC 2998, 48 h, read-out: Activity
Hs-578T = assay: Cytotoxicity against human Hs 578T cells assessed as cell growth at 1 uM after 48 hrs by sulforhodamine B assay relative to control; settings: read-out: Activity
OVCAR-5 [8] = assay: Cytotoxicity against human OVCAR5 cells assessed as cell growth at 0.01 uM after 48 hrs by sulforhodamine B assay relative to control; settings: OVCAR-5, 48 h, read-out: Activity
CCRF-CEM = assay: Cytotoxicity against human CCRF-CEM cells assessed as growth inhibition after 48 hrs by sulforhodamine B assay
SW-620 = assay: Cytotoxicity against human SW620 cells assessed as cell growth at 1 uM after 48 hrs by sulforhodamine B assay relative to control; settings: SW-620, 48 h, read-out: Activity
HL-60(TB) [9] = assay: Cytotoxicity against human HL-60(TB) cells assessed as cell growth at 10 uM after 48 hrs by sulforhodamine B assay relative to control; settings: HL-60, 48 h, read-out: Activity
SK-MEL-5 = assay: Cytotoxicity against human SK-MEL-5 cells assessed as growth inhibition after 48 hrs by sulforhodamine B assay; settings: SK-MEL-5, 48 h
HL-60(TB) [10] = assay: Cytotoxicity against human HL-60(TB) cells assessed as cell growth at 1 uM after 48 hrs by sulforhodamine B assay relative to control; settings: HL-60, 48 h, read-out: Activity
RPMI-8226 [11] = assay: Cytotoxicity against human RPMI8226 cells assessed as cell growth at 10 uM after 48 hrs by sulforhodamine B assay relative to control; settings: RPMI-8226, 48 h, read-out: Activity
OVCAR-4 = assay: Cytotoxicity against human OVCAR4 cells assessed as cell growth at 100 uM after 48 hrs by sulforhodamine B assay relative to control; settings: OVCAR-4, 48 h, read-out: Activity
NCI-H322M = assay: Cytotoxicity against human NCI-H322M cells assessed as cell growth at 1 uM after 48 hrs by sulforhodamine B assay relative to control; settings: read-out: Activity
HCT-116 [12] = assay: Cytotoxicity against human HCT116 cells assessed as cell growth at 1 uM after 48 hrs by sulforhodamine B assay relative to control; settings: HCT-116, 48 h, read-out: Activity
K562 = assay: Cytotoxicity against human K562 cells assessed as growth inhibition after 48 hrs by sulforhodamine B assay; settings: K562, 48 h
M14 = assay: Cytotoxicity against human M14 cells assessed as growth inhibition after 48 hrs by sulforhodamine B assay; settings: M14, 48 h
COLO 205 [13] = assay: Cytotoxicity against human COLO205 cells assessed as cell growth at 100 uM after 48 hrs by sulforhodamine B assay relative to control; settings: COLO 205, 48 h, read-out: Activity

COc1cc(-c2cc(/C=C/C(=O)c3ccc(Cl)c(Cl)c3)[nH]n2)cc(OC)c1OC
LC50 (RPMI-8226 [1]): > 100 µM | TGI (RPMI-8226 [1]): 6.73 µM | growth at 0.01 µM (MOLT-4): 98% | LC50 (HCT-116 [2]): > 100 µM | TGI (HCT-116 [2]): 21.5 µM | growth at 0.01 µM (HT-29): 100% | growth at 0.1 µM (OVCAR-3): 105% | TGI (NCI-H23): > 100 µM | CC50 (NCI-H23): > 100 µM | LC50 (OVCAR-5 [3]): > 100 µM | TGI (OVCAR-5 [3]): > 100 µM | growth at 0.1 µM (786-0): 94% | growth at 1 µM (RPMI-8226 [4]): 33% | growth at 0.01 µM (T47D [5]): 90% | growth at 0.01 µM (COLO 205 [6]): 103% | growth at 0.1 µM (T47D [7]): 87% | TGI (SF-268): 63.3 µM | CC50 (SF-268): > 100 µM | LC50 (NCI-H460): > 100 µM | TGI (NCI-H460): 36.6 µM | growth at 0.1 µM (UACC-257): 96% | growth at 0.1 µM (PC-3): 100% | growth at 10 µM (ACHN): 67% | growth at 1 µM (HOP-62): 68% | TGI (SR): 13.5 µM | CC50 (SR): 96 µM | growth at 0.1 µM (HCC 2998): 97% | growth at 1 µM (Hs-578T): 104% | growth at 0.01 µM (OVCAR-5 [8]): 97% | LC50 (concentration killing 50% of cells) (CCRF-CEM): > 100 µM | TGI (CCRF-CEM): 23.5 µM | growth at 1 µM (SW-620): 91% | growth at 10 µM (HL-60(TB) [9]): 43% | LC50 (concentration killing 50% of cells) (SK-MEL-5): > 100 µM | TGI (SK-MEL-5): 46.9 µM | growth at 1 µM (HL-60(TB) [10]): 90% | growth at 10 µM (RPMI-8226 [11]): -7% | growth at 100 µM (OVCAR-4): -22% | growth at 1 µM (NCI-H322M): 94% | growth at 1 µM (HCT-116 [12]): 80% | LC50 (concentration killing 50% of cells) (K562): > 100 µM | TGI (K562): 64.4 µM | LC50 (concentration killing 50% of cells) (M14): > 100 µM | TGI (M14): > 100 µM | growth at 100 µM (COLO 205 [13]): -42%

COc1cc(C(=O)/C=C/c2cc(-c3cc(OC)c(OC)c(OC)c3)n[nH]2)cc(OC)c1OC
LC50 (RPMI-8226 [1]): > 100 µM | TGI (RPMI-8226 [1]): 2.06 µM | growth at 0.01 µM (MOLT-4): 104% | LC50 (HCT-116 [2]): 5.12 µM | TGI (HCT-116 [2]): 2.59 µM | growth at 0.01 µM (HT-29): 95% | growth at 0.1 µM (OVCAR-3): 105% | TGI (NCI-H23): 9.9 µM | CC50 (NCI-H23): 64.3 µM | LC50 (OVCAR-5 [3]): 5.92 µM | TGI (OVCAR-5 [3]): 3.12 µM | growth at 0.1 µM (786-0): 105% | growth at 1 µM (RPMI-8226 [4]): 17% | growth at 0.01 µM (T47D [5]): 91% | growth at 0.01 µM (COLO 205 [6]): 103% | growth at 0.1 µM (T47D [7]): 92% | TGI (SF-268): 4.58 µM | CC50 (SF-268): 14.2 µM | LC50 (NCI-H460): 9.91 µM | TGI (NCI-H460): 4.33 µM | growth at 0.1 µM (UACC-257): 91% | growth at 0.1 µM (PC-3): 92% | growth at 10 µM (ACHN): -97% | growth at 1 µM (HOP-62): 78% | TGI (SR): > 100 µM | CC50 (SR): > 100 µM | growth at 0.1 µM (HCC 2998): 101% | growth at 1 µM (Hs-578T): 80% | growth at 0.01 µM (OVCAR-5 [8]): 97% | LC50 (concentration killing 50% of cells) (CCRF-CEM): > 100 µM | growth at 1 µM (SW-620): 85% | growth at 10 µM (HL-60(TB) [9]): -28% | LC50 (concentration killing 50% of cells) (SK-MEL-5): 5.49 µM | TGI (SK-MEL-5): 2.94 µM | growth at 1 µM (HL-60(TB) [10]): 81% | growth at 10 µM (RPMI-8226 [11]): -38% | growth at 100 µM (OVCAR-4): -98% | growth at 1 µM (NCI-H322M): 89% | growth at 1 µM (HCT-116 [12]): 70% | LC50 (concentration killing 50% of cells) (K562): > 100 µM | TGI (K562): > 100 µM | LC50 (concentration killing 50% of cells) (M14): 6.13 µM | TGI (M14): 3.32 µM | growth at 100 µM (COLO 205 [13]): -100%

COc1ccc(-c2cc(/C=C/C(=O)c3ccc4c(c3)OCO4)[nH]n2)cc1OC
GI50 (RPMI-8226 [1]): 0.37 µM | GI50 (HCT-116 [2]): 0.36 µM | GI50 (NCI-H23): 2.25 µM | GI50 (OVCAR-5 [3]): 1.76 µM | GI50 (SF-268): 2.09 µM | GI50 (NCI-H460): 0.6 µM | GI50 (SR): 0.25 µM | GI50 (CCRF-CEM): 0.36 µM | GI50 (SK-MEL-5): 1.58 µM | GI50 (K562): 0.61 µM | GI50 (M14): 1.91 µM
